According to patent publication US20210382058A1, “PATIENT SELECTION FOR TREATMENT OF MYC POSITIVE CANCERS WITH INDENOISOQUINOLINES” (Purdue Research Foundation, priority 2020, published 2021):
Read-outs that look alike come from different tables or passages of the source.

How the values were obtained:
NCI-60 cancer cell lines = assay: NCI-60 cancer cell line drug screen (GI50, MGM); assay type: cell-based, human; details: Homo sapiens; for GI50: read-out: Antiproliferative Activities [GI50 (μM)]
Method: Cancer cells were incubated with the test compounds at five concentrations ranging from 100 μM to 10 nM for 48 h. […] The approximate average of GI50 values across the entire panel of NCI-60 cancer cell lines for each compound was recorded as the MGM value.

human topoisomerase I = target: T1, human topoisomerase I (Homo sapiens, UniProt P11387); details: relative topoisomerase I inhibition levels, previously determined, six levels (0 - 5, +++++ = 5); cited from earlier work
T1 sequence (P11387 1-765): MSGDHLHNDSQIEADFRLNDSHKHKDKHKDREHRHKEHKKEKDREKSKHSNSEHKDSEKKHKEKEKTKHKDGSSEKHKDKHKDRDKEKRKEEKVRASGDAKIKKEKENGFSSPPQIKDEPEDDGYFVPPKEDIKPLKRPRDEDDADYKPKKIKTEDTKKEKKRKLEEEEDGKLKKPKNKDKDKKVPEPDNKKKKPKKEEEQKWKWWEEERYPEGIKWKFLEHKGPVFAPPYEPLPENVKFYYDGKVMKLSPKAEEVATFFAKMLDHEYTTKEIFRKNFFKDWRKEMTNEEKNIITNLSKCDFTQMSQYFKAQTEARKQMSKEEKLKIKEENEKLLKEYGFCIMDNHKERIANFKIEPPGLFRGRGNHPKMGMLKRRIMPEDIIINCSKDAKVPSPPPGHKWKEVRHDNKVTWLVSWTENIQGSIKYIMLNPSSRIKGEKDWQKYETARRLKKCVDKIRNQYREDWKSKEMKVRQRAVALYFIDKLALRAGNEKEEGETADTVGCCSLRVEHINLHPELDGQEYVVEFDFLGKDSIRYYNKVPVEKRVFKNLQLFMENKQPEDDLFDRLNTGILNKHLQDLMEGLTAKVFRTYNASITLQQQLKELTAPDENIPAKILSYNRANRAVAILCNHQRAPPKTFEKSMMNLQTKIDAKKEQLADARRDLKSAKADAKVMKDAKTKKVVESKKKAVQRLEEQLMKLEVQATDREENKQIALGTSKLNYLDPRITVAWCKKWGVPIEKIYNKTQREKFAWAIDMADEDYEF

[1] = system: MYC protein expression in MCF-7 breast cancer cells; assay: Western blotting of MYC protein level in MCF-7 cells; assay type: cell-based, human; details: Homo sapiens, MCF7; western blotting, MCF-7 cells, 0.5, 1, 2, and 4 μM, 24 hours; read-out: MYC Inhibition
Summary of the method: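 Immunoblotting with ECL detection quantified MYC, with GAPDH (1:2000) as reference and anti-MYC at 1:1000.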

For `COc1ccc2c(c1)C(=O)c1c-2n(CCCN2CCOCC2)c(=O)c2ccccc12` [Compound 19], the GI50 (NCI-60 cancer cell lines; 786-0, Renal Cancer, 786-0) was 1.78 µM, the GI50 (NCI-60 cancer cell lines; A498, Renal Cancer, A498) was 1.64 µM and the GI50 (NCI-60 cancer cell lines; A549, Non-Small Cell Lung Cancer, A549/ATCC) was 1.96 µM. For the same molecule, the GI50 (NCI-60 cancer cell lines; ACHN, Renal Cancer, ACHN) was 1.67 µM, the GI50 (NCI-60 cancer cell lines; BT-549, Breast Cancer, BT-549) was 4.11 µM and the GI50 (NCI-60 cancer cell lines; CAKI-1, Renal Cancer, CAKI-1) was 3.17 µM. It also gave a GI50 (NCI-60 cancer cell lines; CCRF-CEM, Leukemia, CCRF-CEM) of 1.57 µM, a GI50 (NCI-60 cancer cell lines; COLO 205, Colon Cancer, COLO 205) of 1.74 µM and a GI50 (NCI-60 cancer cell lines; DU-145, Prostate Cancer, DU-145) of 2.31 µM. For the same molecule, the GI50 (NCI-60 cancer cell lines; EKVX, Non-Small Cell Lung Cancer, EKVX) was 4.91 µM, the GI50 (NCI-60 cancer cell lines; HCC 2998, Colon Cancer, HCC-2998) was 3.44 µM and the GI50 (NCI-60 cancer cell lines; HCT-15, Colon Cancer, HCT-15) was 2.9 µM. For the same molecule, the GI50 (NCI-60 cancer cell lines; HCT-116, Colon Cancer, HCT-116) was 1.27 µM, the GI50 (NCI-60 cancer cell lines; HL-60, Leukemia, HL-60(TB)) was 4.28 µM and the GI50 (NCI-60 cancer cell lines; HOP-62, Non-Small Cell Lung Cancer, HOP-62) was 1.41 µM. The GI50 (NCI-60 cancer cell lines; HOP-92, Non-Small Cell Lung Cancer, HOP-92) was 4.47 µM, the GI50 (NCI-60 cancer cell lines; HT-29, Colon Cancer, HT29) was 2.48 µM and the GI50 (NCI-60 cancer cell lines; Hs-578T, Breast Cancer, HS 578T) was 8.95 µM. The GI50 (NCI-60 cancer cell lines; K562, Leukemia, K-562) was 5.13 µM, the GI50 (NCI-60 cancer cell lines; KM12, Colon Cancer, KM12) was 3.8 µM and the GI50 (NCI-60 cancer cell lines; LOX IMVI, Melanoma, LOX IMVI) was 1.34 µM. For the same molecule, the GI50 (NCI-60 cancer cell lines; Leukemia, SR) was 0.29 µM, the GI50 (NCI-60 cancer cell lines; MCF7, Breast Cancer, MCF7) was 0.2 µM and the GI50 (NCI-60 cancer cell lines; MDA-MB-231, Breast Cancer, MDA-MB-231/ATCC) was 11.2 µM. The GI50 (NCI-60 cancer cell lines; MDA-MB-435, Melanoma, MDA-MB-435) was 4.67 µM, the GI50 (NCI-60 cancer cell lines; MOLT-4, Leukemia, MOLT-4) was 0.87 µM and the GI50 (NCI-60 cancer cell lines; Malme-3M, Melanoma, MALME-3M) was 4.49 µM. For the same molecule, the GI50 (NCI-60 cancer cell lines; Melanoma, M14) was 2.85 µM, the GI50 (NCI-60 cancer cell lines; NCI-H23, Non-Small Cell Lung Cancer, NCI-H23) was 3.1 µM and the GI50 (NCI-60 cancer cell lines; NCI-H226, Non-Small Cell Lung Cancer, NCI-H226) was 2.79 µM. The GI50 (NCI-60 cancer cell lines; NCI-H322M, Non-Small Cell Lung Cancer, NCI-H322M) was 5.44 µM, the GI50 (NCI-60 cancer cell lines; NCI-H460, Non-Small Cell Lung Cancer, NCI-H460) was 0.44 µM and the GI50 (NCI-60 cancer cell lines; NCI-H522, Non-Small Cell Lung Cancer, NCI-H522) was 1.06 µM. The GI50 (NCI-60 cancer cell lines; OVCAR-3, Ovarian Cancer, OVCAR-3) was 2.7 µM, the GI50 (NCI-60 cancer cell lines; OVCAR-4, Ovarian Cancer, OVCAR-4) was 3.13 µM and the GI50 (NCI-60 cancer cell lines; OVCAR-5, Ovarian Cancer, OVCAR-5) was 6.31 µM. It also gave a GI50 (NCI-60 cancer cell lines; OVCAR-8, Ovarian Cancer, OVCAR-8) of 3.11 µM, a GI50 (NCI-60 cancer cell lines; Ovarian Cancer, NCl/ADR-RES) of 3.14 µM and a GI50 (NCI-60 cancer cell lines; Prostate Cancer, PC-3) of 19.5 µM. It also gave a GI50 (NCI-60 cancer cell lines; RPMI-8226, Leukemia, RPMI-8226) of 1.85 µM, a GI50 (NCI-60 cancer cell lines; RXF 393, Renal Cancer, RXF 393) of 7.16 µM and a GI50 (NCI-60 cancer cell lines; Renal Cancer, U0-31) of 0.42 µM. For the same molecule, the GI50 (NCI-60 cancer cell lines; SF-268, CNS Cancer, SF-268) was 1.75 µM, the GI50 (NCI-60 cancer cell lines; SF-295, CNS Cancer, SF-295) was 1.27 µM and the GI50 (NCI-60 cancer cell lines; SF-539, CNS Cancer, SF-539) was 1.96 µM. It also gave a GI50 (NCI-60 cancer cell lines; SK-MEL-2, Melanoma, SK-MEL-2) of 19.5 µM, a GI50 (NCI-60 cancer cell lines; SK-MEL-5, Melanoma, SK-MEL-5) of 1.5 µM and a GI50 (NCI-60 cancer cell lines; SK-MEL-28, Melanoma, SK-MEL-28) of 8.03 µM. The GI50 (NCI-60 cancer cell lines; SK-OV-3, Ovarian Cancer, SK-OV-3) was 2.67 µM, the GI50 (NCI-60 cancer cell lines; SN12C, Renal Cancer, SN12C) was 4.1 µM and the GI50 (NCI-60 cancer cell lines; SNB-19, CNS Cancer, SNB-19) was 2.13 µM. For the same molecule, the GI50 (NCI-60 cancer cell lines; SNB-75, CNS Cancer, SNB-75) was 3.63 µM, the GI50 (NCI-60 cancer cell lines; SW-620, Colon Cancer, SW-620) was 1.68 µM and the GI50 (NCI-60 cancer cell lines; T47D, Breast Cancer, T-47D) was 1.07 µM. For the same molecule, the GI50 (NCI-60 cancer cell lines; TK-10, Renal Cancer, TK-10) was 4.63 µM, the GI50 (NCI-60 cancer cell lines; U-251, CNS Cancer, U251) was 1.72 µM and the GI50 (NCI-60 cancer cell lines; UACC-62, Melanoma, UACC-62) was 1.58 µM. The GI50 (NCI-60 cancer cell lines; UACC-257, Melanoma, UACC-257) was 6.6 µM, the mean GI50 across NCI-60 panel (MGM) (NCI-60 cancer cell lines; average of GI50 values across the entire panel of NCI-60 cancer cell lines) was 2.57 µM and the “Top1 Inhibiton” value (human topoisomerase I) was “+++ (strong inhibition, +++, MYC expression inhibited at 0.5 to 1.0 μM)”. For the same molecule, the minimal effective concentration [1] was 2 µM.
